{"source": "patent US20180258100A1", "about": "“RAPAMYCIN ANALOGS SHOWING IMPROVED mTORC1 SPECIFICITY” (priority 2015, published 2018)", "key": {"[1]": {"biological_target": "T1, mTORC1 (Homo sapiens, UniProt P42345+P62942)", "T1 construct": "endogenous in cells; host or cells: PC3 cells", "assay": "Western blot of PC3 cells treated with 100 nM compound, mTORC1 readout (pS6k/S6k)", "type": "cell-based", "description": "Protein concentrations were determined using the DC protein assay (Biorad). Equal amounts of protein were resolved by SDS-PAGE and transferred to nitrocellulose membrane using the Nu-Page system. […] The following day, blots were washed 3 times in TBST, incubated for 2 h with secondary antibodies, and finally washed an additional 3 times in TBST."}, "[2]": {"assay": "Steady state glucose levels after one week of i.p. dosing", "type": "in vivo, female C57BL/6J mice", "conditions": "12 mg/kg i.p. every other day, versus vehicle", "description": "(§1) 10-week old female C57BL/6J mice were given intraperitoneal injections of 8 mg/kg rapamycin (LC laboratories), 12 mg/kg compound 390 or vehicle every other day for three weeks (N=5 mice/group), such as to mimic chronic exposure conditions. 24 hours after the last injection, tissues were dissected from the mice and immediately frozen in liquid nitrogen. The tissues were homogenized using the Omni TH homogenizer (Omni International) on ice in RIPA buffer and then centrifuged at 13,000 rpm for 15 minutes at 4° C. The supernatants were collected and protein concentration was determined using the DC protein assay (Biorad).\nSteady state glucose levels were determined after one week from study initiation using a Bayer Contour blood glucose meter and test strips from small blood samples, which were withdrawn from a tail vein nick. At the end of the second week, the animals were challenged by administration of 2 mg/kg glucose; glucose levels were determined for two hours following the challenge at 30 min intervals."}, "[3]": {"assay": "Insulin challenge response", "type": "in vivo, female C57BL/6J mice", "conditions": "0.75 IU/kg insulin after 2 weeks; rapamycin 8 mg/kg, compound 390 12 mg/kg i.p. every other day", "description": "FIG. 10. Response to insulin challenge following administration of 0.75 IU/kg insulin at t=2 weeks following the initiation of the intraperitoneal administrations of 8 mg/kg rapamycin, 12 mg/kg compound 390 or vehicle control every other day in female mice (N=5).\nas §1"}, "[4]": {"assay": "Fat mass by EchoMRI body composition after four weeks", "type": "in vivo, male C57BL/6J mice", "conditions": "4 weeks of every other day administration; rapamycin 8 mg/kg, compound 390 12 mg/kg; versus vehicle", "description": "Fortyfive C57BL/6J male mice, housed three per cage, were weighed and their body composition was measured with an EchoMRI 3-in-1 system. Cages were sorted into three groups—vehicle, rapamycin, and compound 390—such that the average weight was similar for all three groups. Mice received every-other-day injections of either vehicle, rapamycin (8 mg/kg), or compound 390 (12 mg/kg). A glucose tolerance test was performed after 2 weeks (morning after the 8th injection). A pyruvate tolerance test was performed after 3 weeks. Glucose stimulated insulin secretion assay was performed after 4 weeks and additional blood was collected for whole blood analysis. Body composition was measured on day −2 and day 31."}, "[5]": {"test_system": "autophagy markers (pULK/ULK, Beclin-1, Vps34, LC3B, p62)", "assay": "Autophagy markers in brain of Tg4510 mice", "type": "in vivo", "conditions": "12 mg/kg i.p., 4 weeks", "description": "(§2) Female Tg4510 and control mice were purchased from the Jackson Laboratory (Bar Harbor, Me.). All mice were examined and weighed prior to initiation of the study to ensure adequate health and suitability and were caged under controlled temperature (20-23° C.) and relative humidity (maintained around 50%). All tests were performed during the animal's light cycle phase. Mice received every-other-day injections of either vehicle or compound 390 (12 mg/kg) in the following groups: (a) wild-type (WT) mice receiving vehicle (n=16); (b) Tg4510 mice receiving vehicle (n=15) and (c) Tg4510 mice receiving DL390 (12 mg/kg; n=15)\nA number of autophagy markers were measured both in the cortex and hippocampus tissue to assess the status of the autophagic clearance mechanism across the three study groups. Specifically, pULK/ULK, Beclin-1, Vps34, LC3B and p62 were measured using the appropriate antibodies (Cell Signaling Technology)."}, "[6]": {"test_system": "Tg4510 mice", "assay": "Morris water maze test in Tg4510 mice", "type": "in vivo", "conditions": "12 mg/kg, 4-weeks treatment, versus vehicle-treated Tg4510 mice", "description": "as §2\nThe test was performed in a circular tank, measuring 48″ in diameter. Extra-maze cues were mounted around the water tank. On 5 consecutive days of the week, test sessions were conducted with the platform submerged approximately 1.3 cm below the surface of the water. On each day, there were 4 trials, 60 s long. Approximately 15 min elapsed between each trial. On the fifth day of acquisition training, the last trial (out of 4) consisted of 60 s without the platform."}}, "data": [{"compound": "CO[C@H]1CC2CC[C@@H](C)[C@@](O)(O2)C(=O)C(=O)N2CCCC[C@H]2C(=O)O[C@H]([C@@H](C)CC2CCC(O)CC2)CC(=O)[C@@H](C)/C=C(\\C)[C@H](O)[C@H](O)C(=O)[C@@H](C)C[C@H](C)/C=C/C=C/C=C/1C", "note": "(stereo partly shown) [compound 390, 27-O-Desmethyl-39-Desmethoxy Rapamycin]", "values": [{"measurement": "mTORC1 inhibition (pS6k/S6k)", "setting": "[1]", "result": "full mTORC1 inhibition"}, {"measurement": "change of steady state glucose plasma levels", "setting": "[2]", "result": "does not produce any substantial or statistically significant increase"}, {"measurement": "glucose response after insulin challenge (insulin resistance)", "setting": "[3]", "result": "indistinguishable from the vehicle-receiving control animals"}, {"measurement": "fat mass (adiposity)", "setting": "[4]", "result": "does not induce any increase of adiposity"}, {"measurement": "Beclin-1 activity (initiation phase of autophagy)", "setting": "[5]", "result": "nearly full restoration of Beclin-1 activity"}, {"measurement": "ULK1 phosphorylation (induction phase of autophagy)", "setting": "[5]", "result": "reduction of ULK1 phosphorylation"}, {"measurement": "accumulated LC3B-II levels (maturation and lysosomal clearance)", "setting": "[5]", "result": "substantial reduction"}, {"measurement": "accumulated p62 levels (maturation and lysosomal clearance)", "setting": "[5]", "result": "substantial reduction"}, {"measurement": "autophagy in the brain, all stages", "setting": "[5]", "result": "substantial and statistically significant upregulation"}, {"measurement": "behavioral performance, total distance travelled during acquisition days", "setting": "[6]", "result": "strong trends of behavioral improvement"}]}]}
